Measured values published in article PMC9386018, “A lymphatic-absorbed multi-targeted kinase inhibitor for myelofibrosis therapy” (Nature Communications, 2022).
“And” between values parts separate entries of the source, which are not always exact repeats. Identical values can stand only once.

Test system: MPL^W515L mouse model of myelofibrosis
Test: MPL^W515L MF mouse model Study 2: spleen volume by MRI
Format: in vivo
Settings: for Spleen volume/body weight ratio: Study 2, individual animals, Supplementary Figure 11a
Protocol: Generation of the MPL^W515L mutant MF mouse model was similar to previously described methods. Briefly, female donor BALB/c mice were treated with 5-fluorouracil at 150 mg kg^−1 intraperitoneal for 5 d before harvesting bone marrow. Hematopoietic stem and progenitor cells were enriched with CD117 magnetic beads (Miltenyi Biotec), transduced with retrovirus containing MSCV-hMPL W515L-IRES-GFP, then 50,000 transduced HSPCs along with 300,000 total non-stem cells were injected intravenously into lethally irradiated female BALB/c recipients. Development of MF was evaluated by spleen volumes using MRI beginning ~14 d following bone marrow transplantation (BMT) as outlined below, continuing weekly until end of the study. Mice were separated into equal groups based on spleen size ~14–21 d post-BMT, then treated with vehicle (Maisine CC) or LP-182 at 400 mg kg^−1 daily by oral gavage for 14–28 d or until mice were euthanized using guidelines for end stage illness and humane endpoints. Untreated healthy control animals were used for experimental comparisons. Tissues were harvested and processed for flow cytometry (as described above), LCMS/MS, immuno-blotting, and histological analysis (as described in Supplementary Methods) at the defined study endpoint(s), approximately 1–2 h post-treatment with vehicle or LP-182. Briefly, blood samples were collected, transferred into K2-EDTA tubes (BD Microtainer), inverted gently to mix, then centrifuged at 2000 x g for 15 min. […] Dissection and bone marrow isolation from mouse femur and tibia was performed similar to previously described methods. Briefly, the hind limbs from mice were dissected, muscle and connective tissue removed, and bones were frozen at −80 °C. Femur and tibia were thawed separately, placed knee-end down in 18 gauge needle-pierced 0.5 mL microcentrifuge tubes nested inside 1.5 or 2 mL microcentrifuge tubes containing 1.4 mm ceramic beads (Fisher Scientific), then bone marrow was isolated by centrifugation at 10,000 x g for 1 min and processed for analysis by LCMS/MS (above; femur) or immuno-blotting (tibia). […] Soluble protein extracts were isolated by centrifugation at 15,000 x g for 15 min at 4 °C, quantified using Micro BCA protein assay (Thermo Scientific), then mixed with reducing 6X SDS-PAGE loading dye, heated for 8 min at 95 °C, and stored at −20 °C until immuno-blot analysis. Whole cell lysates were resolved by 10% SDS-PAGE, transferred to PVDF (Immobilon-P; MilliporeSigma), then membranes were blocked with 5% BSA (Equitech-Bio) in TBS containing 0.1% Tween-20 (TBST) for 1 h at room temperature with gentle orbital shaking. […]

## O=C(NOCCOCCOCCOCCC(=O)N1CCN(c2cnc3ccc(-c4cnc(Cl)c(NS(=O)(=O)c5ccc(F)cc5)c4)cc3n2)CC1)c1ccc(F)c(F)c1Nc1ccc(I)cc1F [LP-182, N-(2-(2-(2-(3-(4-(7-(6-chloro-5-((4-fluorophenyl)sulfonamido)pyridin-3-yl)quinoxalin-2-yl)piperazin-1-yl)-3-oxopropoxy)ethoxy)ethoxy)ethoxy)-3,4-difluoro-2-((2-fluoro-4-iodophenyl)amino)benzamide]
Study 2, MPL^W515L mice, oral 400 mg kg^−1 daily, after 14 d
  attenuation of spleen volume increase compared to vehicle: ~ 35%
15 Days Post-BMT
  Spleen volume/body weight ratio: 9.2805 mm3/g and 6.788 mm3/g and 8.526 mm3/g and 6.999 mm3/g and 8.219 mm3/g and 8.1905 mm3/g and 7.226 mm3/g and 10.8805 mm3/g
22 Days Post-BMT
  Spleen volume/body weight ratio: 22.8 mm3/g and 16.1111 mm3/g and 16.0806 mm3/g and 22.1506 mm3/g and 12.2778 mm3/g and 11.0626 mm3/g and 6.573 mm3/g and 8.03 mm3/g
29 Days Post-BMT
  Spleen volume/body weight ratio: 30.4359 mm3/g and 16.7368 mm3/g and 15.8947 mm3/g and 27.7838 mm3/g and 8.806 mm3/g and 15.337 mm3/g and 5.115 mm3/g and 6.324 mm3/g
